The source of these data is US11912719B2, “Substituted isoquinolines as rock kinase inhibitors” (Cervello Therapeutics LLC, priority 2018, dated 2024).

Common to all, as to type: biochemical
One assay deals with T1, PKACα (PRKACA) (Homo sapiens, UniProt P17612).
T1 construct: GST; purchased Carna BioSciences 01-127
As to the kind of experiment: fluorescence coupling (TR-FRET) enzymatic assay, PKACA off-target control. The following applies: 10 pM enzyme, 1 μM ATP, 50 nM Ulight-CREBTide, one hour room temperature. Here is the method: (§1) Dose-response curves for compounds of the present invention were determined using a fluorescence coupling enzymatic assay using purified C-terminal truncated human ROCK1 catalytic domain (amino acids 1-477 of accession number NP_005397.1) fused to GST (Carna BioSciences, Catalog #01-109) and purified C-terminal truncated human ROCK2 enzyme kinase domain (amino acids 1-553 of accession number NP_004841.2) fused to GST BioSciences, Catalog #01-110). In addition, full length cGMP-dependent protein kinase 1 (PKG or PRKG1; amino acids 1-686 of accession number NP_006249.1) fused to GST (Carna BioSciences, Catalog #01-142), full length PKACα (PRKACA; amino acids 1-351 of accession number NP_002721.1) fused to GST (Carna BioSciences, Catalog #01-127), and C-terminal truncated human AKT1 catalytic domain (amino acids 104-480 of accession number NP_005154.1) fused to GST Biosciences, Catalog #01-101) were used as a control to measure any non-desired off-target kinase activity.
(§2) Briefly, compounds of the present invention were solubilized in DMSO and a series of 12, three-fold serial dilutions were made for each compound in 2.5% DMSO. The initial starting concentration for the serial dilutions of each compound was 10 μM or 100 μM. Control samples lacking compound, ROCK enzyme or ATP also were prepared and processed in parallel with compound test samples.
(§3) A 4 μL aliquot of each serial dilution of test compound diluted in H2O with 2.5% DMSO was added to a well containing 4 μL of 10 nM purified N-truncated ROCK1 (4 nM final concentration), 10 nM purified N-truncated ROCK2 enzyme (4 nM final concentration), 1.25 nM AKT1 (0.5 nM final concentration), 25 pM PKACA (10 pM final concentration) or 20 nM PKG (8 nM final concentration), in reaction buffer containing 50 mM Hepes, pH 7.5, 1 mM EGTA, 10 mM MgCl2, 2 mM DTT, and 0.01% Tween 20 (final concentration). To initiate the enzymatic reaction, 2 μL of a solution was added to each well to provide a final concentration of 50 nM Ulight-CREBTide peptide substrate (Perkin Elmer, Catalog #TRF0107) and 4 μM ATP for ROCK1 and AKT1 assays, […] for ROCK2 assays and 30 μM ATP for PKG assays, or 1 μM ATP for PKACA assays. The reaction mixtures were incubated at room temperature for one hour. After one hour, the reaction was stopped by the addition of a 10 solution of an Europium-labelled phospho-CREB (Ser133) antibody (Perkin Elmer, Catalog #TRF0200) in LANCE buffer supplemented with 20 mM EDTA. The stopped reaction mixtures were incubated at room temperature for 90 minutes. The TR-FRET 665/620 ratios were determined using a Clariostar monochromator plate reader instrument (BMG LabTech) in accordance with the manufacturer's instructions. The ICso value for each compound was determined from each dose-response curve using GraphPad Prism 7 software with a sigmodial dose response. Key: A is IC50≤100 nM; B is 100 nM<IC50<1000 nM; C is 1,000<IC50≤10,000 nM; D is IC50>10,000 nM
(Time-resolved FRET reads energy transfer from a long-lived donor to a nearby acceptor.)

The target of assay [1] is T2, human ROCK1 catalytic domain (Homo sapiens, UniProt Q13464).
T2 construct: GST; purchased Carna BioSciences 01-109
T2 sequence (Q13464 1-477): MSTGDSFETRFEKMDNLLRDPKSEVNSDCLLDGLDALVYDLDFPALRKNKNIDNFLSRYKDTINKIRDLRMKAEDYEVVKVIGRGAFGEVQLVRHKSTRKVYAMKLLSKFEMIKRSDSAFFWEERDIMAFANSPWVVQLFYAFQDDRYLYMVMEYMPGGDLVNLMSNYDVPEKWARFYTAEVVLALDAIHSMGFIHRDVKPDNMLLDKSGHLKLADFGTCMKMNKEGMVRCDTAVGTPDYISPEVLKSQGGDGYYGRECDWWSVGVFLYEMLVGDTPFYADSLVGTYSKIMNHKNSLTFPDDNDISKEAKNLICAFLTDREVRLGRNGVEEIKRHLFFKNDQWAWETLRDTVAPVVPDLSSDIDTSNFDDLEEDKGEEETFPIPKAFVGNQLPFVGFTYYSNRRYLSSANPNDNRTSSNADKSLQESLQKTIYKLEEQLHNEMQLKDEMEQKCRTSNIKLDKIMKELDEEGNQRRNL
As to the kind of experiment: fluorescence coupling (TR-FRET) enzymatic assay, ROCK1. The settings on record: 4 nM enzyme, 4 μM ATP, 50 nM Ulight-CREBTide, one hour room temperature; read-out: ROCK1 IC50. Here is the method:
as §2
The reaction mixtures were incubated at room temperature for one hour. After one hour, the reaction was stopped by the addition of a 10 solution of an Europium-labelled phospho-CREB (Ser133) antibody (Perkin Elmer, Catalog #TRF0200) in LANCE buffer supplemented with 20 mM EDTA. The stopped reaction mixtures were incubated at room temperature for 90 minutes. […] The ICso value for each compound was determined from each dose-response curve using GraphPad Prism 7 software with a sigmodial dose response.

Assay [2] has as its target T3, cGMP-dependent protein kinase 1 (PKG or PRKG1) (Homo sapiens, UniProt Q13976).
T3 construct: GST; purchased Carna BioSciences 01-142
T3 sequence (Q13976 1-686 isoform Q13976-2): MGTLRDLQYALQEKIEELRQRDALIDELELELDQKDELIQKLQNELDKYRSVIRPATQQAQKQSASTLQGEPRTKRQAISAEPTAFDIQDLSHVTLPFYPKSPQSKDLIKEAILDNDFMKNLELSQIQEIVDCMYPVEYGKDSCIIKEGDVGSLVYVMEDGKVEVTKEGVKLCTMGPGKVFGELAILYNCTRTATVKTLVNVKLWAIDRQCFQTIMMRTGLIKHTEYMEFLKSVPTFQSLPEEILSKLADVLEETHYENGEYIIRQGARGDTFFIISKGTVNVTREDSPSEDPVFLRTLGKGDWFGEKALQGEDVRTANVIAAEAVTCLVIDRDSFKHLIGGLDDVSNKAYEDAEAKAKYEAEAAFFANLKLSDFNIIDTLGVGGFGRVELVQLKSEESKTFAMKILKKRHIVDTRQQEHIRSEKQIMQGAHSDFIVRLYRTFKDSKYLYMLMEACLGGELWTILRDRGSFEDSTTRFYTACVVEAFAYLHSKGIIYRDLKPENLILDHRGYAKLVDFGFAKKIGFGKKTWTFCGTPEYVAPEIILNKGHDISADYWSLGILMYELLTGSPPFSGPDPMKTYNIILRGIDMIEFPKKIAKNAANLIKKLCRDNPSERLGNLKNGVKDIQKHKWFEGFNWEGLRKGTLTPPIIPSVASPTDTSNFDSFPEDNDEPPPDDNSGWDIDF
The assay is described as follows: fluorescence coupling (TR-FRET) enzymatic assay, PKG off-target control. The settings on record: 8 nM enzyme, 30 μM ATP, 50 nM Ulight-CREBTide, one hour room temperature. Here is the method: as §1, §2, §3

In assay [3] the target is T4, human AKT1 catalytic domain (Homo sapiens, UniProt P31749).
T4 construct: GST; purchased Carna BioSciences 01-101
T4 sequence (P31749 104-480): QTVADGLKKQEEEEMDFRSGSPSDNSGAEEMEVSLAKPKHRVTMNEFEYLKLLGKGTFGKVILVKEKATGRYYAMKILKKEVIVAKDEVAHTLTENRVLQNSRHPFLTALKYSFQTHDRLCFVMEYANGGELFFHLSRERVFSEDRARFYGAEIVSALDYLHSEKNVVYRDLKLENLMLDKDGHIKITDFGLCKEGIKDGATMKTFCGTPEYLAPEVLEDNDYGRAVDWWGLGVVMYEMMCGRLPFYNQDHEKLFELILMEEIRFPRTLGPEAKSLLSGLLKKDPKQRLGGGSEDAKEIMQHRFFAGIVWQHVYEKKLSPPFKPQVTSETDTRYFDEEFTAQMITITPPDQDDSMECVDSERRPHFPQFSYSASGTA
As to the kind of experiment: fluorescence coupling (TR-FRET) enzymatic assay, AKT1 off-target control. The following applies: 0.5 nM enzyme, 4 μM ATP, 50 nM Ulight-CREBTide, one hour room temperature. Here is the method: as §1, §2, §3

Assay [4] addresses T5, human ROCK2 enzyme kinase domain (Homo sapiens, UniProt O75116).
T5 construct: GST; purchased Carna BioSciences 01-110
As to the kind of experiment: fluorescence coupling (TR-FRET) enzymatic assay, ROCK2. The following applies: 4 nM enzyme, 50 nM Ulight-CREBTide, one hour room temperature. Here is the method:
as §1, §2, §3

A value given as a limit tells only on which side of the number the result lay.

T5 sequence (O75116 1-553): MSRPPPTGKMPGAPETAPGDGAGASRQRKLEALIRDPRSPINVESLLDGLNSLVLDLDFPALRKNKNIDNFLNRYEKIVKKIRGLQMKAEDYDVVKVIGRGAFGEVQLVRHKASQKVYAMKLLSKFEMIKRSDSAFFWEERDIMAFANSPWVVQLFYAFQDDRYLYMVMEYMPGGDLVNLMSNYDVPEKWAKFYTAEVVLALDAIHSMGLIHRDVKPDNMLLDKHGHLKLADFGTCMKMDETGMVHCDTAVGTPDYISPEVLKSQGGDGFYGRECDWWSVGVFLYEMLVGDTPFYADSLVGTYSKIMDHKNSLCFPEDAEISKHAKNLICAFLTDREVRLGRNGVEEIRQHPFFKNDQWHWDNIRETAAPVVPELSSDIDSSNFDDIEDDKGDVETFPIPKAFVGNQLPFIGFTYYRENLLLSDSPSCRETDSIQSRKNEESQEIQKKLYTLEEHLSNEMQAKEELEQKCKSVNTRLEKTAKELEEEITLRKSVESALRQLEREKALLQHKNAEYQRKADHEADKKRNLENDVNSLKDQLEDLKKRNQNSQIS

Usually IC50 stands for the concentration that gives 50% inhibition. As to `N#Cc1cc(N)c2c(c1)N(S(=O)(=O)c1cccc3c(=O)[nH]ccc13)CC2` [Example 31, 4-amino-1-((1-oxo-1,2-dihydroisoquinolin-5-yl)sulfonyl)indoline-6-carbonitrile], the IC50 is 1 to 10 µM on PKACα (PRKACA); less than 0.1 µM in assay [1]; greater than 10 µM in assay [2]; greater than 10 µM in assay [3]; less than 0.1 µM in assay [4].
In the case of `O=c1[nH]ccc2c(S(=O)(=O)N3CCc4c3cccc4C(F)(F)F)cccc12` [Example 8, 5-((4-(Trifluoromethyl)indolin-1-yl)sulfonyl)isoquinolin-1 (2H)-one], the IC50 (on PKACα (PRKACA); in assay [1]; in assay [2]; in assay [3]; in assay [4]) was greater than 10 µM each time.
Take `O=c1[nH]ccc2c(S(=O)(=O)N3CCc4c(Cl)cc(Cl)cc43)cccc12` [Example 16, 5-((4,6-Dichloroindolin-1-yl)sulfonyl)isoquinolin-1 (2H)-one]: the IC50 at PKACα (PRKACA) is greater than 10 µM; in assay [1] it was 1 to 10 µM; in assay [2] it was greater than 10 µM; in assay [3], greater than 10 µM; in assay [4], 1 to 10 µM.
`Cc1c[nH]c(=O)c2cccc(S(=O)(=O)N3CCc4c(N)cc(C#N)cc43)c12` [Example 33, 4-amino-1-((4-methyl-1-oxo-1,2-dihydroisoquinolin-5-yl)sulfonyl)indoline-6-carbonitrile]: the IC50 against PKACα (PRKACA) is greater than 10 µM; in assay [1], less than 0.1 µM; in assay [2], greater than 10 µM; in assay [3] it was greater than 10 µM; in assay [4] it was less than 0.1 µM.
Take `CNc1cc(C#N)cc2c1CCN2S(=O)(=O)c1cccc2c(=O)[nH]cc(C)c12` [Example 41, 1-((4-methyl-1-oxo-1,2-dihydroisoquinolin-5-yl)sulfonyl)-4-(methylamino)indoline-6-carbonitrile]: the IC50 at PKACα (PRKACA) was greater than 10 µM; in assay [1], 0.1 to 1 µM; in assay [2] it was greater than 10 µM; in assay [3], greater than 10 µM; in assay [4], 0.1 to 1 µM.
On to `N#Cc1cnc2c(c1)N(S(=O)(=O)c1cccc3c(=O)[nH]ccc13)CC2` [Example 38, 1-((1-oxo-1,2-dihydroisoquinolin-5-yl)sulfonyl)-2,3-dihydro-1H-pyrrolo[3,2-b]pyridine-6-carbonitrile], for which the IC50 was greater than 10 µM against PKACα (PRKACA); 0.1 to 1 µM in assay [1]; greater than 10 µM in assay [2]; greater than 10 µM in assay [3]; 0.1 to 1 µM in assay [4].
As for `Cc1c[nH]c(=O)c2cccc(S(=O)(=O)N3CCc4c(N(C)C)cc(C#N)cc43)c12` [Example 34, 4-(dimethylamino)-1-((4-methyl-1-oxo-1,2-dihydroisoquinolin-5-yl)sulfonyl)indoline-6-carbonitrile], the IC50 was greater than 10 µM on PKACα (PRKACA); 1 to 10 µM in assay [1]; greater than 10 µM in assay [2]; greater than 10 µM in assay [3]; 1 to 10 µM in assay [4].
Consider `N#Cc1cnc2c(c1)N(S(=O)(=O)c1cccc3c(=O)[nH]cc(Cl)c13)CC2` [Example 40, 1-((4-chloro-1-oxo-1,2-dihydroisoquinolin-5-yl)sulfonyl)-2,3-dihydro-1H-pyrrolo[3,2-b]pyridine-6-carbonitrile], for which the IC50 at PKACα (PRKACA) is greater than 10 µM; in assay [1] it was less than 0.1 µM; in assay [2], greater than 10 µM; in assay [3], greater than 10 µM; in assay [4] it was less than 0.1 µM.
Take `Cc1cc(C#N)cc2c1CCN2S(=O)(=O)c1cccc2c(O)ncc(C)c12` [Example 23, 1-((1-Hydroxy-4-methylisoquinolin-5-yl)sulfonyl)-4-methylindoline-6-carbonitrile]: the 50% inhibitory concentration (IC50) at PKACα (PRKACA) is greater than 10 µM; in assay [1], 0.1 to 1 µM; in assay [2] it was greater than 10 µM; in assay [3] it was greater than 10 µM; in assay [4], 0.1 to 1 µM.
In the case of `O=c1[nH]ccc2c(S(=O)(=O)N3CCc4ccccc43)cccc12` [Example 3, 5-(Indolin-1-ylsulfonyl)isoquinolin-1 (2H)-one], the IC50 on PKACα (PRKACA) is greater than 10 µM; in assay [1], 1 to 10 µM; in assay [2], greater than 10 µM; in assay [3] it was greater than 10 µM; in assay [4], 1 to 10 µM.
Consider `Cc1cccc2c1CCN2S(=O)(=O)c1cccc2c(=O)[nH]ccc12` [Example 1, 5-((4-Methylindolin-1-yl)sulfonyl)isoquinolin-1 (2H)-one], for which the IC50 against PKACα (PRKACA) was greater than 10 µM; in assay [1], 1 to 10 µM; in assay [2] it was greater than 10 µM; in assay [3], greater than 10 µM; in assay [4], 1 to 10 µM.
For `CC(=O)Nc1cc(C#N)cc2c1CCN2S(=O)(=O)c1cccc2c(=O)[nH]ccc12` [Example 30, N-(6-cyano-1-((1-oxo-1,2-dihydroisoquinolin-5-yl)sulfonyl)indolin-4-yl)acetamide], the IC50 against PKACα (PRKACA) was 1 to 10 µM; in assay [1], less than 0.1 µM; in assay [2] it was greater than 10 µM; in assay [3], 1 to 10 µM; in assay [4], less than 0.1 µM.
With `CCc1cccc2c1CCN2S(=O)(=O)c1cccc2c(=O)[nH]ccc12` [Example 10, 5-((4-ethylindolin-1-yl)sulfonyl)isoquinolin-1 (2H)-one], the IC50 (against PKACα (PRKACA); in assay [1]; in assay [2]; in assay [3]; in assay [4]) was greater than 10 µM throughout.
In the case of `CC(O)c1cccc2c1CCN2S(=O)(=O)c1cccc2c(=O)[nH]ccc12` (stereo not shown) [Example 11, 5-((4-(1-Hydroxyethyl)indolin-1-yl)sulfonyl)isoquinolin-1 (2H)-one], the IC50 on PKACα (PRKACA) is greater than 10 µM; in assay [1], 1 to 10 µM; in assay [2], greater than 10 µM; in assay [3], greater than 10 µM; in assay [4] it was 1 to 10 µM.
